Source: patent US20240327380A1, “BTK INHIBITORS” (BIOGEN MA INC., priority 2020, published 2024)

Experiments:
[1] = target: T1, active BTK enzyme (Upstate 14-552) (Homo sapiens, UniProt Q06187); test: In Vitro BTK Kinase Assay: Btk-PolyGAT-LS Assay; format: biochemical; conditions: ATP 10 μM, polyGAT 100 nM, BTK 0.25 nM, 30 minutes, TRF readout
T1 construct: purchased Upstate 14-552
Method in brief: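 Active BTK (0.25 nM) phosphorylates fluorescein-polyGAT peptide (100 nM) with 10 µM ATP in Tris-HCl pH 7.5/MgCl2/DTT buffer, 30 min, EDTA stop. Phosphopeptide detected by TR-FRET with Tb-PY20 antibody after 45 min at room temperature; IC50 from four-parameter fit against DMSO and EDTA controls.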

[2] = tested on: CD69 expression on CD19+ B cells in human whole blood; test: In Vitro whole blood CD69 Assay; format: cell-based; conditions: B-cell; human heparinized whole blood, anti-human IgD stimulation overnight, percentage of CD19+ B cells expressing CD69, flow cytometry; read-out: IC50
Method: In Vitro whole blood CD69 Assay
Human heparinized venous blood from health donors was aliquoted into 96-well plate and “spiked” with serial dilutions of formula I compounds in DMSO or with DMSO without drug. The final concentration of DMSO in all wells was 0.1%. The plate was incubated at 37° C. for 30 min. Drug-containing samples were stimulated with […] mouse anti-human IgD-dextran (1A62) or […] polyclonal rabbit F(ab′)2 anti-human IgD. Phosphate-buffered saline (PBS) was added to the negative control unstimulated sample and the plates were incubated overnight (18 to 22 hours) at 37° C. Cells were stained with fluorochrome-conjugated anti-CD19 and anti-CD69 antibodies. Lyse/fix solution was used to remove red blood cells by hypotonic lysis and to fix the remaining cells, which were then analyzed by flow cytometry. CD19+ B cells were gated and analyzed for CD69 expression. The percentage of B cells expressing CD69 was plotted versus the log 10 of the concentration of the drug and the best-fit curves (variable Hill slope) were generated to obtain the IC50 value.

T1 sequence (Q06187 whole entry): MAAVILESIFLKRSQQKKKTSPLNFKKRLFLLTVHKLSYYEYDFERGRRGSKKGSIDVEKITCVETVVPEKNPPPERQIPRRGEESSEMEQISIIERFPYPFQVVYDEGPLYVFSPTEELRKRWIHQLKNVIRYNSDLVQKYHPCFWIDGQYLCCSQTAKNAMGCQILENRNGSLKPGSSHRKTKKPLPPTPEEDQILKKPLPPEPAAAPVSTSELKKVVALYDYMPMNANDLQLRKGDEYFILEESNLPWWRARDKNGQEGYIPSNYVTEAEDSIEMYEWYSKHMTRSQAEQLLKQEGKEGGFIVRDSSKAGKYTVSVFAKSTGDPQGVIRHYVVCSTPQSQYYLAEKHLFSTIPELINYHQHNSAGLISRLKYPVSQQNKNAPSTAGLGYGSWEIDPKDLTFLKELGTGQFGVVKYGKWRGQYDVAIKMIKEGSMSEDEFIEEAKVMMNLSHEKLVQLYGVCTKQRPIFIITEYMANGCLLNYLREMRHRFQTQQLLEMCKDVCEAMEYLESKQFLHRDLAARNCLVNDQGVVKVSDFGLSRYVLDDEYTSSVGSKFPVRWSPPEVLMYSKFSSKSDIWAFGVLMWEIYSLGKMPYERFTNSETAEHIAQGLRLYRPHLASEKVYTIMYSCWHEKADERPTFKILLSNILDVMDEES

| SMILES | IC50 [1] [nM] | IC50 [2] [nM] |
| --- | --- | --- |
| C=CC(=O)N1CCCC(c2cnccc2-c2ccc(CNC(=O)c3noc(C4(C)CC4)n3)c(C)c2)C1 (centres unmarked) [Example 26, N-(4-(3-(1-acryloylpiperidin-3-yl)pyridin-4-yl)-2-methylbenzyl)-5-(1-methylcyclopropyl)-1,2,4-oxadiazole-3-carboxamide] | 1 to 10 | 100 to 1000 |
| C=CC(=O)N(C)C1CCCN(c2cnccc2-c2ccc(CNC(=O)c3nc(C(C)(C)C)no3)c(C)c2F)C1 (centres unmarked) [Example 18, 3-(tert-butyl)-N-(3-fluoro-2-methyl-4-(3-(3-(N-methylacrylamido)piperidin-1-yl)pyridin-4-yl)benzyl)-1,2,4-oxadiazole-5-carboxamide] | ≤ 1 | 100 to 1000 |
| C=CC(=O)N1CCC[C@H](c2cnccc2-c2ccc(CNC(=O)c3nc(C4(C)CC4)no3)c(C)c2)C1 (single isomer, unassigned) [Example 30] | 1 to 10 | > 1000 |
| C=CC(=O)N1CCC[C@H](c2cnccc2-c2ccc(CNC(=O)c3cn(C(C)(C)C)nn3)c(C)c2)C1 (single isomer, unassigned) [Example 24] | 1 to 10 | > 1000 |
